For orientation: Ki means a measure of affinity in units of concentration, obtained from inhibition or displacement. Read a high Ki as a looser hold on the target. Broadly, the IC50 is the concentration at which inhibition is half-maximal. High values mean weaker potency in that assay, low ones greater potency in that assay. In general, inhibition refers to the change of the read-out against control, counted positive when it falls. Low readings indicate a weak effect, high ones a strong effect.

Ten compounds from patent US8642623B2, “Vanilloid receptor ligand compounds, pharmaceutical compositions containing them, a method of producing them and the use thereof to treat pain and various other conditions” (Gruenenthal GmbH, priority 2007, dated 2014) can be followed below.

Common to all, as to assay type: cell-based
In assay [1] the target is T1, vanilloid receptor 1 (VR1/TRPV1) of the rat species (Rattus norvegicus, UniProt O35433).
T1 construct: The spinal column is removed from decapitated rats; from tissue; host or cells: primary cells from rat dorsal root ganglia (DRG)
In words: FLIPR Ca2+ influx assay on rat dorsal root ganglia cells, capsaicin stimulus (Pharmacological method I). As to conditions: capsaicin 100 nM stimulus, Ki from IC50 by Cheng-Prusoff. The procedure:
The agonistic or antagonistic action of the substances to be investigated on the vanilloid receptor 1 (VR1/TRPV1) of the rat species may be determined with the following assay. According to this assay, the influx of Ca^2+ through the receptor channel is quantified with the assistance of a Ca^2+-sensitive dye (type Fluo-4, Molecular Probes Europe BV, Leiden, Netherlands) in a Fluorescent Imaging Plate Reader (FLIPR, Molecular Devices, Sunnyvale, USA).
Complete medium: 50 mL HAMS F12 Nutrient Mixture (Gibco Invitrogen GmbH, Karlsruhe, Germany) with 10 vol. % FCS (foetal calf serum, Gibco Invitrogen GmbH, Karlsruhe, Germany, heat-inactivated);
Cell culture plate: poly-D-lysine-coated, black 96-hole plates with clear base (96 well black/clear plate, BD Biosciences, Heidelberg, Germany) are additionally coated with laminin (Gibco Invitrogen GmbH, Karlsruhe, Germany), by diluting laminin to a concentration of 100 μg/mL with PBS (Ca—Mg-free PBS, Gibco Invitrogen GmbH, Karlsruhe, Germany). Aliquots with a concentration of 100 μg/mL of laminin are taken and stored at −20° C. The aliquots are diluted with PBS in the ratio of 1:10 to 10 μg/mL of laminin and 50 μL of the solution is pipetted into each well of the cell culture plate. The cell culture plates are incubated for at least two hours at 37° C., the supernatant solution is aspirated and the wells are each washed twice with PBS. The coated cell culture plates are stored with supernatant PBS and this is only removed directly prior to introduction of the cells.
The spinal column is removed from decapitated rats and this is placed directly in cold HBSS buffer (Hank's buffered saline solution, Gibco Invitrogen GmbH, Karlsruhe, Germany), i.e. located in an ice bath, combined with 1 vol. % (percent by volume) of an AA solution (antibiotic/antimycotic solution, PAA, Pasching, Austria). The spinal column is severed lengthwise and removed from the spinal canal together with fasciae. The dorsal root ganglia (DRGs) are then removed and in turn stored in cold HBSS buffer combined with 1 vol. % of an AA solution. The DRGs, from which blood residues and spinal nerves have been completely removed, are in each case transferred into 500 μL cold collagenase type 2 (PAA, Pasching, Austria) and incubated for 35 minutes at 37° C. After the addition of 2.5 vol. % trypsin (PAA, Pasching, Austria) incubation at 37° C. is continued for a further 10 minutes. After complete incubation, the enzyme solution is carefully pipetted off and the remaining DRGs are combined in each case with 500 μL of complete medium.
The DRGs are in each case repeatedly suspended, drawn through cannulas no. 1, no. 12 and no. 16 by means of a syringe and transferred into 50 mL Falcon microtubes, these being filled to 15 mL with complete medium. The content of each Falcon microtube is in each case filtered through a 70 μm Falcon filter insert and centrifuged for 10 minutes at 1200 revolutions and room temperature. The resultant pellet is in each case redissolved in 250 μL of complete medium and the cell count is determined.
The number of cells in the suspension is adjusted to 3×10^5 per mL and a 150 μL portion of this suspension is in each case placed in a well of the cell culture plates which have been coated as described above. The plates are left to stand in the incubator for two to three days at 37° C., 5 vol. % CO2 and 95% relative atmospheric humidity.
The cells are then loaded with 2 μM Fluo-4 and 0.01 vol. % Pluronic F127 (Molecular Probes Europe BV, Leiden, Netherlands) in HBSS buffer (Hank's buffered saline solution, Gibco Invitrogen GmbH, Karlsruhe, Germany) for 30 min at 37° C., washed 3×with HBSS buffer and, after a further 15 minutes' incubation at room temperature, used for Ca^2+ measurement in the FLIPR assay. Ca^2+-dependent fluorescence is here measured before and after the addition of substances (λex=488 nm, λem=540 nm). […]

Another assay concerns the target T2, vanilloid receptor (VR1) (Homo sapiens, UniProt Q8NER1).
T2 construct: expressed in transfected cells; host or cells: CHO K1 cells (ECACC), stably transfected
The assay is described as follows: FLIPR Ca2+ influx assay with CHO K1 cells transfected with the human VR1 gene, capsaicin stimulus (Pharmacological method II). As to conditions: for Ki / Ki (human) Capsaicin: capsaicin 100 nM stimulus, Ki from IC50 by Cheng-Prusoff. The procedure:
In addition, compounds according to the invention of the general formulae I, Ia, Ib, I′, I″, I′″ may be preferred which, in a FLIPR assay with CHO K1 cells which have been transfected with the human gene VR1, in a concentration of less than 2000 nM, preferably of less than 1000 nM, particularly preferably of less then 300 nM, very particularly preferably of less than 100 nM, still more preferably of less than 75 nM, further preferably of less than 50 nM, most preferably of less than 10 nM, bring about 50% displacement of capsaicin which is present in a concentration of 100 nM.
In this FLIPR assay, the influx of Ca^2+ is quantified with the assistance of a Ca^2+-sensitive dye (type Fluo-4, Molecular Probes Europe BV, Leiden, Netherlands) in a Fluorescent Imaging Plate Reader (FLIPR, Molecular Devices, Sunnyvale, USA) as described below.
The agonistic or antagonistic action of the substances to be investigated on the vanilloid receptor (VR1) may also be determined with the following assay. According to this assay, the influx of Ca^2+ through the channel is quantified with the assistance of a Ca^2+-sensitive dye (type Fluo-4, Molecular Probes Europe BV, Leiden, Netherlands) in a Fluorescent Imaging Plate Reader (FLIPR, Molecular Devices, Sunnyvale, USA).
Chinese hamster ovary cells (CHO K1 cells, European Collection of Cell Cultures (ECACC), Great Britain) are stably transfected with the VR1 gene. For functional investigations, these cells are plated out onto poly-D-lysine-coated, black 96-hole plates with a clear base (BD Biosciences, Heidelberg, Germany) at a density of 25,000 cells/hole. The cells are incubated overnight at 37° C. and 5% CO2 in a culture medium (Ham's Nutrient Mixture F12, 10 vol. % FCS (foetal calf serum), 18 μg/mL L-proline). On the following day, the cells are incubated with Fluo-4 (Fluo-4 2 μM, Pluronic F127 0.01 vol. %, Molecular Probes in HBSS (Hank's buffered saline solution), Gibco Invitrogen GmbH, Karlsruhe, Germany) for 30 minutes at 37° C. The plates are then washed 3 times with HBSS buffer and, after a further 15 minutes' incubation at room temperature, used for Ca^2+ measurement in the FLIPR. Ca^2+-dependent fluorescence is here measured before and after the addition of the substances to be investigated (wavelength λex=488 nm, λem=540 nm). Quantification proceeds by measuring the highest fluorescence intensity (FC, fluorescence counts) over time.
The FLIPR protocol consists of 2 additions of substance. The substances to be tested (10 μM) are firstly pipetted onto the cells and Ca^2+ influx is compared with the control (capsaicin 10 μM) (% activation relative to the Ca^2+ signal after addition of 10 μM of capsaicin). After 5 minutes' incubation, 100 nM of capsaicin are added and the influx of Ca^2+ is likewise determined.
The percentage inhibition in comparison with the maximum achievable inhibition with 10 μM capsaicin is calculated.
On the basis of the percentage displacement by different concentrations of the compounds to be tested of the general formula I, IC50 inhibition concentrations which bring about 50% displacement of capsaicin were calculated. Ki values for the test substances were obtained by conversion using the Cheng-Prusoff equation (Cheng, Prusoff; Biochem. Pharmacol. 22, 3099-3108, 1973).

Assay [2] deals with vanilloid receptor 1 (VR1/TRPV1 receptor) (Homo sapiens, UniProt Q8NER1). The assay is described as follows: Human VR1/TRPV1 receptor inhibition after pH stimulus. The following applies: for inhibition at 5 µM: compound 5 μM; for inhibition at 10 µM: compound 10 μM.
Sequence of vanilloid receptor 1 (VR1/TRPV1 receptor) (Q8NER1 whole entry): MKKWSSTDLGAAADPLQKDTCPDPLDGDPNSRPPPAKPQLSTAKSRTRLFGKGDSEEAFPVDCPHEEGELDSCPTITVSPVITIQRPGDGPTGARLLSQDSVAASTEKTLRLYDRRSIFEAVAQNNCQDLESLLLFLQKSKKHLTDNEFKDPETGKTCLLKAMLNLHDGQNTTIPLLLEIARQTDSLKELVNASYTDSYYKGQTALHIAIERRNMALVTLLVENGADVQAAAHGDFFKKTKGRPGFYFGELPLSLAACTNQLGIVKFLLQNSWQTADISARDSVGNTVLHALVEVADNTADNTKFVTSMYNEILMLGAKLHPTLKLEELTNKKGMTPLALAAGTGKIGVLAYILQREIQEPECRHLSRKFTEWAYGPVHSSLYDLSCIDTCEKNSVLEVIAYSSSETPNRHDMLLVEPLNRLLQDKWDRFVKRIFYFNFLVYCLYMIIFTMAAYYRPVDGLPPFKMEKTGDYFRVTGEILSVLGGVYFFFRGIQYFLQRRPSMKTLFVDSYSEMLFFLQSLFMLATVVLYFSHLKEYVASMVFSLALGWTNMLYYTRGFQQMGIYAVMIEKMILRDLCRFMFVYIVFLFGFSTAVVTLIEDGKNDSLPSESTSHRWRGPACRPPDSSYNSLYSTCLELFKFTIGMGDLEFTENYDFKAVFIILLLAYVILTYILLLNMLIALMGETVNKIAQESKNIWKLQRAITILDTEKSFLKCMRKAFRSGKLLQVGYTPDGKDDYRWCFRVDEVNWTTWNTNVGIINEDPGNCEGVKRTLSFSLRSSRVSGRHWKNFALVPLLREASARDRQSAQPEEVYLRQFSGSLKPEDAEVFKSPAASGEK

T1 sequence (O35433 whole entry): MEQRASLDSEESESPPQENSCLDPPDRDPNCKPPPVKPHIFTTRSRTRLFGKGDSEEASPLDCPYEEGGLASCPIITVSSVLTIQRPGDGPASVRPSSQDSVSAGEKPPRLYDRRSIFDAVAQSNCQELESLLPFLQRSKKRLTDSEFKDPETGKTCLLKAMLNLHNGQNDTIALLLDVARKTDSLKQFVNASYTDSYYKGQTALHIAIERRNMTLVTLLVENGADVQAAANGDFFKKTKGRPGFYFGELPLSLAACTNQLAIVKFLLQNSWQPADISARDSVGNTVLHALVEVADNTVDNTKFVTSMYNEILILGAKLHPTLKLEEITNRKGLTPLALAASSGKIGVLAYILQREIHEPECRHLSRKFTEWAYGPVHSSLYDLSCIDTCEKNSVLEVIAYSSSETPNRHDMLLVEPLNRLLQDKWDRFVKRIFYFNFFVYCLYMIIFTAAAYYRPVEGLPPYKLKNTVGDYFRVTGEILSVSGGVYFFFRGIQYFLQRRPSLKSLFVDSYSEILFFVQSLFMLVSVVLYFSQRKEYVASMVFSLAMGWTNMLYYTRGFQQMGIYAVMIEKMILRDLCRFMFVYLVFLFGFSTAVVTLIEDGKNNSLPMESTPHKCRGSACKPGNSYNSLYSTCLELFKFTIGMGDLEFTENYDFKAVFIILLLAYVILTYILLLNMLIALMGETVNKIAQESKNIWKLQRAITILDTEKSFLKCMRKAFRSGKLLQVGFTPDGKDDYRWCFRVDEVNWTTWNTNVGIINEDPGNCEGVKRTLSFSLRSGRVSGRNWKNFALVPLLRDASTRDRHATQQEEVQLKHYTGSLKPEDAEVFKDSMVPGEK
T2 sequence (Q8NER1 whole entry): as the sequence (Q8NER1 whole entry) above

Regarding `CCC(=O)N(c1ccccc1)C1CCN(c2nc(C(F)(F)F)ccc2CNC(=O)C(C)c2ccc(N(C(=O)CC)S(C)(=O)=O)c(F)c2)CC1` (stereo not drawn) [Example 1, N-(2-fluoro-4-(1-oxo-1-((2-(4-(N-phenylpropionamido)piperidin-1-yl)-6-(trifluoromethyl)pyridin-3-yl)methylamino)propan-2-yl)phenyl)-N-(methylsulfonyl)propionamide], the Ki in assay [1] came to 19.5 nM; at vanilloid receptor (VR1), 69.1 nM. In addition, in assay [2], inhibition was half-maximal at 525 nM (IC50).
For `CC(=O)N(c1ccc(C(C)C(=O)NCc2ccc(C(F)(F)F)nc2N2CCC(C)CC2)cc1F)S(C)(=O)=O` (stereo not drawn) [Example 2, 2-(3-fluoro-4-(N-(methylsulfonyl)acetamido)phenyl)-N-((2-(4-methylpiperidin-1-yl)-6-(trifluoromethyl)pyridin-3-yl)methyl)propanamide], the values for the Ki (in assay [1]; at vanilloid receptor (VR1)) were 2.2 nM and 11.9 nM, respectively. In addition, it took 947 nM to reach half-maximal inhibition in assay [2] (IC50).
As for `CC1CCN(c2nc(C(F)(F)F)ccc2CNC(=O)C(C)c2ccc(N(C)S(C)(=O)=O)c(F)c2)CC1` (stereo not drawn) [Example 3, 2-(3-fluoro-4-(N-methylmethylsulfonamido)phenyl)-N-((2-(4-methylpiperidin-1-yl)-6-(trifluoromethyl)pyridin-3-yl)methyl)propanamide], in assay [1], the Ki was 20 nM. Moreover, on vanilloid receptor (VR1), the Ki came out at 55.5 nM. In assay [2], this compound showed an inhibition at 5 µM of 8% and an inhibition at 10 µM of 16%.
The compound `CC(C(=O)NCc1ccc(C(C)(C)C)cc1)c1ccc(N(C)S(C)(=O)=O)c(F)c1` (stereo not drawn) [Example 4, N-(4-tert.-butylbenzyl)-2-(3-fluoro-4-(N-methylmethylsulfonamido)phenyl)propanamide] registered a Ki in assay [1] of 50.4 nM. For the same compound, on vanilloid receptor (VR1), the “Ki (human) Capsaicin” value is “Ne”. In assay [2], this compound yielded an inhibition at 5 µM of 0% and an inhibition at 10 µM of 22%.
For `CCN(c1ccc([C@H](C)C(=O)NCc2ccc(C(C)(C)C)cc2)cc1F)S(C)(=O)=O` [Example 6, (S)—N-(4-tert.-butylbenzyl)-2-(4-(N-ethylmethylsulfonamido)-3-fluorophenyl)propanamide], in that order: 66.8 nM, “Ne”, 0% and 21%.
As to `CC(C(=O)NCc1ccc(C(F)(F)F)nc1SC1CCCCC1)c1ccc(N(C)S(C)(=O)=O)c(F)c1` (stereo not drawn) [Example 7, N-((2-(cyclohexylthio)-6-(trifluoromethyl)pyridin-3-yl)methyl)-2-(3-fluoro-4-(N-methylmethylsulfonamido)phenyl)propanamide], the affinity in assay [1] corresponds to a Ki of 30.8 nM. The compound also came in with a Ki at vanilloid receptor (VR1) of 48.1 nM. In assay [2], this compound yielded an inhibition at 5 µM of 0% and an inhibition at 10 µM of 20%.
The corresponding values for `CCN(c1ccc(C(C)C(=O)NCc2ccc(C(F)(F)F)nc2N2CCC(C)CC2)cc1F)S(C)(=O)=O` (stereo not drawn) [Example 9, 2-(4-(N-ethylmethylsulfonamido)-3-fluorophenyl)-N-((2-(4-methylpiperidin-1-yl)-6-(trifluoromethyl)pyridin-3-yl)methyl)propanamide] are 63.8 nM, 22.7 nM, 11% and 46%.
For `CC1CCN(c2nc(C(C)(C)C)ccc2CNC(=O)C(C)c2ccc(N(C)S(C)(=O)=O)c(F)c2)CC1` (stereo not drawn) [Example 10, N-((6-tert.-butyl-2-(4-methylpiperidin-1-yl)pyridin-3-yl)methyl)-2-(3-fluoro-4-(N-methylmethylsulfonamido)phenyl)propanamide], in that order: 2.8 nM, 27.7 nM, 0% and 11%.
In assay [1], `CC(C(=O)NCc1ccc(C(C)(C)C)nc1SC1CCCCC1)c1ccc(N(C)S(C)(=O)=O)c(F)c1` (stereo not drawn) [Example 11, N-((6-tert.-butyl-2-(cyclohexylthio)pyridin-3-yl)methyl)-2-(3-fluoro-4-(N-methylmethylsulfonamido)phenyl)propanamide] showed a Ki of 16.8 nM. For the same compound, at vanilloid receptor (VR1) (CHO-K1, capsaicin stimulus, compound 0.1 μM), the inhibition at 0.1 µM is 0%. This compound also displayed an inhibition at 1 µM against vanilloid receptor (VR1) (CHO-K1, capsaicin stimulus, compound 1 μM) of 33%. The inhibition at 5 µM against vanilloid receptor (VR1) (CHO-K1, capsaicin stimulus, compound 5 μM) was 56%. Further, the “IC50 (human) after pH stimulus” value in assay [2] is given as “ne”.
In assay [1], `CC1CCN(c2cc(C(F)(F)F)ccc2CNC(=O)C(C)c2ccc(N(C)S(C)(=O)=O)c(F)c2)CC1` (stereo not drawn) [Example 12, 2-(3-fluoro-4-(N-methylmethylsulfonamido)phenyl)-N-(2-(4-methylpiperidin-1-yl)-4-(trifluoromethyl)benzyl)propanamide] returned an inhibitory constant (Ki) of 5 nM. Further, on vanilloid receptor (VR1), the Ki stood at 7.8 nM. In assay [2], this compound displayed an inhibition at 5 µM of 0% and an inhibition at 10 µM of 43%.
